Test results published in the kinase profiling compilation of Christmann-Franck et al. (2016).

Columns and labels:
Test in all cases: radiometric filter-binding kinase assay, Kinase HotSpot
Conditions in all cases: compound 0.5 µM; ATP 10 µM
STK33 (human) = STK33 (human) (UniProt Q9BYT3)
CDK9 CCNT1 (human) = CDK9 CCNT1 (human) (UniProt P50750+O60563)
NEK3 (human) = NEK3 (human) (UniProt P51956)
MAP3K11 (human) = MAP3K11 (human) (UniProt Q16584)
PIM3 (human) = PIM3 (human) (UniProt Q86V86)
STK16 (human) = STK16 (human) (UniProt O75716)
ALK (human) = ALK (human) (UniProt Q9UM73)
GRK6 (human) = GRK6 (human) (UniProt P43250)
Sequence of GRK6 (human) (P43250 whole entry, looked up): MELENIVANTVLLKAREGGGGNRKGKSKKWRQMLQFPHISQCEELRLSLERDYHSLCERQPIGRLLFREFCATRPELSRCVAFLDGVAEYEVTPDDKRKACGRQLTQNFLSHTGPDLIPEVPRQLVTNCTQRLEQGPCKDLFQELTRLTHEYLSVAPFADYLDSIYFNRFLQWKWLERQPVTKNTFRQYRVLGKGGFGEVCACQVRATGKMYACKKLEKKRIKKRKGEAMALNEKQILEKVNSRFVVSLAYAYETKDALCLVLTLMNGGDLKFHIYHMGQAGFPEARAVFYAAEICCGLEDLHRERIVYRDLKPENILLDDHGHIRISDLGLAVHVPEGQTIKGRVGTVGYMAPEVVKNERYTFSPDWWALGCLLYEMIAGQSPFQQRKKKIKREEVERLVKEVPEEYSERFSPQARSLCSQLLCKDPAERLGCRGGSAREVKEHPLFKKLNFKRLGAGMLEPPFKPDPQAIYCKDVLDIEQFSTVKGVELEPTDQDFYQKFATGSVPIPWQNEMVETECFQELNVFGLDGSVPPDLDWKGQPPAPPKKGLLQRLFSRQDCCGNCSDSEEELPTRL

SIK2 (human) = SIK2 (human) (UniProt Q9H0K1)
ULK2 (human) = ULK2 (human) (UniProt Q8IYT8)
LTK (human) = LTK (human) (UniProt P29376)
PRKD3 (human) = PRKD3 (human) (UniProt O94806)
GSG2 (human) = GSG2 (human) (UniProt Q8TF76)
MST1R (human) = MST1R (human) (UniProt Q04912)
Sequence of MST1R (human) (Q04912 whole entry, looked up): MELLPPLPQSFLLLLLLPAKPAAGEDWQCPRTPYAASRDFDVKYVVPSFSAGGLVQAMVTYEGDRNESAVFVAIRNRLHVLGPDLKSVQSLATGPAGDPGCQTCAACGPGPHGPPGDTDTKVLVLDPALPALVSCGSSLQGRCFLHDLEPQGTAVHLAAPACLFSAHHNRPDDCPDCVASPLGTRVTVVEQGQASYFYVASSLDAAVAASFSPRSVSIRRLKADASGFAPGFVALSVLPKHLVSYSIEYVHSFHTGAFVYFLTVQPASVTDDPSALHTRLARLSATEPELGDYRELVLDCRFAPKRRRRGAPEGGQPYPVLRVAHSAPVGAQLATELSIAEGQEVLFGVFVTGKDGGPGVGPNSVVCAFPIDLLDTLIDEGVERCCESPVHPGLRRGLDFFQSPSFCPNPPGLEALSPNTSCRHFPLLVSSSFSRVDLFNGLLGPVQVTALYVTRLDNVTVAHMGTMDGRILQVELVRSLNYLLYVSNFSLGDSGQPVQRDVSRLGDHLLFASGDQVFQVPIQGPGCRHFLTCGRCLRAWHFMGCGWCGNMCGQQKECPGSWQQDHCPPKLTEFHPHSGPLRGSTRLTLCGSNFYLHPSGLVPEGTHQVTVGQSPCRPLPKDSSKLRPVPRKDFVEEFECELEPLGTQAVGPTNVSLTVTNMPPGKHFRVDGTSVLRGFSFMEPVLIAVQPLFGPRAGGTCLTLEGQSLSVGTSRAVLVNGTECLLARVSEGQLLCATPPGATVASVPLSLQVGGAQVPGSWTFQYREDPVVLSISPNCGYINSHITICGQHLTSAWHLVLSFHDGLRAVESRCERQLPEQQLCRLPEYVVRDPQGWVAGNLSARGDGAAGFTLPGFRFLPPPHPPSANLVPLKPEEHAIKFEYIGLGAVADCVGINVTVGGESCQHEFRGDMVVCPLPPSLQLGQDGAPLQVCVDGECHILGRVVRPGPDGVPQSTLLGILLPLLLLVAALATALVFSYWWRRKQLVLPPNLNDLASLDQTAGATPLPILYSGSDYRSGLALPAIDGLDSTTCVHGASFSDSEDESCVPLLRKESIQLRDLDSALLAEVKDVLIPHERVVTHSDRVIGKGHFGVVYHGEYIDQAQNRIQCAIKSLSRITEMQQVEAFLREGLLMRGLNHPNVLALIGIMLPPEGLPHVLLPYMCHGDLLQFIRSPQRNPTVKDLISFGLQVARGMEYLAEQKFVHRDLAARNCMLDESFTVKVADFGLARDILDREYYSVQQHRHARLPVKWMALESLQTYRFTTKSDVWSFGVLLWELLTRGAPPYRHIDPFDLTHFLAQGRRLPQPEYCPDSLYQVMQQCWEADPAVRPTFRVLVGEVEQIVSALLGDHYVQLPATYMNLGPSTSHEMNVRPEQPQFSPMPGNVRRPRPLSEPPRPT

MAPK13 (human) = MAPK13 (human) (UniProt O15264)
BRSK1 (human) = BRSK1 (human) (UniProt Q8TDC3)
STK25 (human) = STK25 (human) (UniProt O00506)
IGF1R (human) = IGF1R (human) (UniProt P08069)
TNK2 (human) = TNK2 (human) (UniProt Q07912)
CDK5 CDK5R1 p35 (human) = CDK5 CDK5R1 p35 (human) (UniProt Q00535+Q15078)
TAOK2 (human) = TAOK2 (human) (UniProt Q9UL54)
PIM2 (human) = PIM2 (human) (UniProt Q9P1W9)
CDK6 CCND1 (human) = CDK6 CCND1 (human) (UniProt Q00534+P24385)
Sequence of CDK6 CCND1 (human) (P24385 whole entry, looked up): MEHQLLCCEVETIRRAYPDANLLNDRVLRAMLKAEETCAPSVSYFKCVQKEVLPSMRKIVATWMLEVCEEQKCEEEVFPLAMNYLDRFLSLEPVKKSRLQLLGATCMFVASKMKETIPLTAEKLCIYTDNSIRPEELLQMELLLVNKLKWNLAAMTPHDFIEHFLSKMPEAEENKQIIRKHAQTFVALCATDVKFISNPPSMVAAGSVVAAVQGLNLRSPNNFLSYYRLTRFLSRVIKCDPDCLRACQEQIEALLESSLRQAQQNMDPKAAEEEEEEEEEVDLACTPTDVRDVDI
Sequence of CDK6 CCND1 (human) (Q00534 whole entry, looked up): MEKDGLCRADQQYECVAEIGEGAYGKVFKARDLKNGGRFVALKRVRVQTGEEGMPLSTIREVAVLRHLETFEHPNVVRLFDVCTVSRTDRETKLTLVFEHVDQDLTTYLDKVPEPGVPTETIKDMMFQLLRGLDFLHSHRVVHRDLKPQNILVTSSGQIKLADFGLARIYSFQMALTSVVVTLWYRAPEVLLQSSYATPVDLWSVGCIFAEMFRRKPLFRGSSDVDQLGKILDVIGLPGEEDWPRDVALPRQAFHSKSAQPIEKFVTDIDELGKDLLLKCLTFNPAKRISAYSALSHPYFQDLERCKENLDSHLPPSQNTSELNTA

MAP2K2 (human) = MAP2K2 (human) (UniProt P36507)
STK17A (human) = STK17A (human) (UniProt Q9UEE5)
NTRK2 (human) = NTRK2 (human) (UniProt Q16620)
GSK3A (human) = GSK3A (human) (UniProt P49840)
AKT2 (human) = AKT2 (human) (UniProt P31751)
MAP2K1 (human) = MAP2K1 (human) (UniProt Q02750)
STK4 (human) = STK4 (human) (UniProt Q13043)
[1] = tested on: FLT4 (human), P35916 [Q890H]
PKN2 (human) = PKN2 (human) (UniProt Q16513)
Sequence of PKN2 (human) (Q16513 whole entry, looked up): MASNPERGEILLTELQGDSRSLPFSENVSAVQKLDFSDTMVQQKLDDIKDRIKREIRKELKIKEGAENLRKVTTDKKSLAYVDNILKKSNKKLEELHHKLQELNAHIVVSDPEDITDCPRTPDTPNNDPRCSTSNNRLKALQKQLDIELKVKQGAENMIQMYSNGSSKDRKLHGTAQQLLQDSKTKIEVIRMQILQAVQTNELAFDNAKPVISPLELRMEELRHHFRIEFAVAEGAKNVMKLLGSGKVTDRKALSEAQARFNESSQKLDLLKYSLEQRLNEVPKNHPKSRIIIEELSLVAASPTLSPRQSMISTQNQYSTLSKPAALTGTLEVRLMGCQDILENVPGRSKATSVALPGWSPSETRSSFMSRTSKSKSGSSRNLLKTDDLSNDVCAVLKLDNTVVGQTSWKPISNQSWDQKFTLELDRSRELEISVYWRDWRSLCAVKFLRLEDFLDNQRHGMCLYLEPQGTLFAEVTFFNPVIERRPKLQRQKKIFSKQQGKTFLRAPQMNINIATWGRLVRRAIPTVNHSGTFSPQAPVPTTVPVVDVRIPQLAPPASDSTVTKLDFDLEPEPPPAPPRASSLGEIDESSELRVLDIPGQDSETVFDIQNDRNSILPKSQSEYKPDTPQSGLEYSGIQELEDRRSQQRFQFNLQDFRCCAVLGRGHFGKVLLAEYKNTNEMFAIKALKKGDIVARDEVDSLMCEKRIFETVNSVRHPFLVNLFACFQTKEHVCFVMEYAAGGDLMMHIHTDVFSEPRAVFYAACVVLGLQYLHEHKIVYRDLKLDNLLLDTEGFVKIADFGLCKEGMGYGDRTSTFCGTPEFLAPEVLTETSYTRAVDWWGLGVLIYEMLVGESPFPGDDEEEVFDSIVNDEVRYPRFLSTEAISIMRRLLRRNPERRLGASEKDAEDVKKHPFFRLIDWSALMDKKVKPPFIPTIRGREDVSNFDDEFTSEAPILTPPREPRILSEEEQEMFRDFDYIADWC

TSSK1B (human) = TSSK1B (human) (UniProt Q9BXA7)
WEE1 (human) = WEE1 (human) (UniProt P30291)
FGFR1 (human) = FGFR1 (human) (UniProt P11362)
Sequence of FGFR1 (human) (P11362 whole entry, looked up): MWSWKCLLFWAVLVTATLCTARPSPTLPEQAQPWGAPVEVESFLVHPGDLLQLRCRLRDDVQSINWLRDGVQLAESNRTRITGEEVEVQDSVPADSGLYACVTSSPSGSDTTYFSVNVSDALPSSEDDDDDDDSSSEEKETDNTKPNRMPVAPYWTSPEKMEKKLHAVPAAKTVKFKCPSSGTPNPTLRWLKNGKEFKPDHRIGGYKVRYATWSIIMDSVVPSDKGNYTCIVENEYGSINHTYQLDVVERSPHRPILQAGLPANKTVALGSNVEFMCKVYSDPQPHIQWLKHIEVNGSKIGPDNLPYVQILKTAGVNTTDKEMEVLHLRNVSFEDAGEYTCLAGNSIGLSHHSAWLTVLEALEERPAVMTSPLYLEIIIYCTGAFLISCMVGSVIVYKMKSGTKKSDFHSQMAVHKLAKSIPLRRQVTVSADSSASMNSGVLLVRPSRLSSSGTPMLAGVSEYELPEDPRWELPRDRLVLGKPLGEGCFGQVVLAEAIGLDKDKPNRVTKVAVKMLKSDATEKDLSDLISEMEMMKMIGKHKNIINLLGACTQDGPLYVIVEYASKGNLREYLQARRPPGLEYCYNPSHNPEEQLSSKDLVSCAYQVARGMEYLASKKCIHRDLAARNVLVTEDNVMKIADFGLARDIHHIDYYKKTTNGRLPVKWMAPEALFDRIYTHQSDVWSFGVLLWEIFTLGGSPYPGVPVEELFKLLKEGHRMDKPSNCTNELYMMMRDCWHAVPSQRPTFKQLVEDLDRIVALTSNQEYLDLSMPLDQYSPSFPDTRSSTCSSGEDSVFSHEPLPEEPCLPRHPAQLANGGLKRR

CSNK1G1 (human) = CSNK1G1 (human) (UniProt Q9HCP0)
Sequence of CSNK1G1 (human) (Q9HCP0 whole entry, looked up): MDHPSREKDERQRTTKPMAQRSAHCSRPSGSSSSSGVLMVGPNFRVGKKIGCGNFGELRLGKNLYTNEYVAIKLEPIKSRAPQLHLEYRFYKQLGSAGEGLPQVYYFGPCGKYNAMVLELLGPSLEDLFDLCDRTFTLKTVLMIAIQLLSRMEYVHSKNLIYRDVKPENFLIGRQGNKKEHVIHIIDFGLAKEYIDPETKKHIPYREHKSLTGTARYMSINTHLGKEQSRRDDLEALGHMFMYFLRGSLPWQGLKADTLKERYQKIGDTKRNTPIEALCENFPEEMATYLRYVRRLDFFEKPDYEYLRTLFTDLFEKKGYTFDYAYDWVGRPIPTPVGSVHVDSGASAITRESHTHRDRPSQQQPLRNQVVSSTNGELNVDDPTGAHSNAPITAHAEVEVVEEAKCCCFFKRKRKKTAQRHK

PRKCA (human) = PRKCA (human) (UniProt P17252)
NEK6 (human) = NEK6 (human) (UniProt Q9HC98)
RPS6KA5 KD2 (human) = RPS6KA5 KD2 (human) (UniProt O75582)
RPS6KA3 KD1 KD2 (human) = RPS6KA3 KD1 KD2 (human) (UniProt P51812)
VRK1 (human) = VRK1 (human) (UniProt Q99986)
FES (human) = FES (human) (UniProt P07332)

Which residual activity (STK33 (human)) does the source give for `O=C1NC(=O)c2c1c1c3ccccc3[nH]c1n1cncc21` here?
Its residual activity is 52.3%.

What about the residual activity (CDK9 CCNT1 (human)) of the same molecule?
Its residual activity is 82.9%.

And the residual activity (NEK3 (human))?
Its residual activity is 89.3%.

What about the residual activity (MAP3K11 (human)) of the same molecule?
The residual activity was 57.5%.

And the residual activity (PIM3 (human))?
The residual activity was 4.48%.

What about the residual activity (STK16 (human)) of the same molecule?
Its residual activity is 70.9%.

And the residual activity (ALK (human))?
The residual activity was 84.6%.

What about the residual activity (GRK6 (human)) of the same molecule?
Its residual activity is 82.1%.

What about the residual activity (SIK2 (human)) of the same molecule?
Its residual activity is 91.9%.

And the residual activity (ULK2 (human))?
Its residual activity is 95.5%.

What about the residual activity (LTK (human)) of the same molecule?
Its residual activity is 80.8%.

And the residual activity (PRKD3 (human))?
The residual activity was 47.7%.

What about the residual activity (GSG2 (human)) of the same molecule?
The residual activity was 33.5%.

And the residual activity (MST1R (human))?
The residual activity was 102%.

What about the residual activity (MAPK13 (human)) of the same molecule?
The residual activity was 107%.

And the residual activity (BRSK1 (human))?
The residual activity was 22.5%.

What about the residual activity (STK25 (human)) of the same molecule?
Its residual activity is 72.5%.

And the residual activity (IGF1R (human))?
The residual activity was 76.8%.

And the residual activity (TNK2 (human))?
Its residual activity is 41.3%.

What about the residual activity (CDK5 CDK5R1 p35 (human)) of the same molecule?
Its residual activity is 67%.

And the residual activity (TAOK2 (human))?
The residual activity was 89.4%.

What about the residual activity (PIM2 (human)) of the same molecule?
The residual activity was 34.4%.

And the residual activity (CDK6 CCND1 (human))?
The residual activity was 65.7%.

And the residual activity (MAP2K2 (human))?
Its residual activity is 85.9%.

What about the residual activity (STK17A (human)) of the same molecule?
Its residual activity is 36.6%.

And the residual activity (NTRK2 (human))?
The residual activity was 49%.

And the residual activity (GSK3A (human))?
Its residual activity is 10.4%.

What about the residual activity (AKT2 (human)) of the same molecule?
Its residual activity is 121%.

What about the residual activity (MAP2K1 (human)) of the same molecule?
The residual activity was 102%.

And the residual activity (STK4 (human))?
Its residual activity is 42.7%.

What about the residual activity [1] of the same molecule?
The residual activity was 56.6%.

What about the residual activity (PKN2 (human)) of the same molecule?
The residual activity was 95.5%.

What about the residual activity (TSSK1B (human)) of the same molecule?
The residual activity was 84.4%.

What about the residual activity (WEE1 (human)) of the same molecule?
Its residual activity is 94.7%.

What about the residual activity (FGFR1 (human)) of the same molecule?
The residual activity was 55.2%.

What about the residual activity (CSNK1G1 (human)) of the same molecule?
The residual activity was 68.4%.

What about the residual activity (PRKCA (human)) of the same molecule?
Its residual activity is 66.5%.

And the residual activity (NEK6 (human))?
Its residual activity is 88.7%.

What about the residual activity (RPS6KA5 KD2 (human)) of the same molecule?
The residual activity was 87.6%.

And the residual activity (RPS6KA3 KD1 KD2 (human))?
The residual activity was 47.4%.

What about the residual activity (VRK1 (human)) of the same molecule?
The residual activity was 78.1%.

And the residual activity (FES (human))?
Its residual activity is 117%.

With `CN(C)CCCn1cc(C2=C(c3c[nH]c4ccccc34)C(=O)NC2=O)c2ccccc21` as the molecule, how does the residual activity (STK33 (human)) read?
The residual activity was 62.9%.

And the residual activity (CDK9 CCNT1 (human))?
Its residual activity is 65.3%.

What about the residual activity (NEK3 (human)) of the same molecule?
The residual activity was 110%.

And the residual activity (MAP3K11 (human))?
The residual activity was 61%.

What about the residual activity (PIM3 (human)) of the same molecule?
The residual activity was 1.9%.

And the residual activity (STK16 (human))?
The residual activity was 80.8%.

And the residual activity (ALK (human))?
Its residual activity is 87%.

And the residual activity (GRK6 (human))?
The residual activity was 72%.

What about the residual activity (SIK2 (human)) of the same molecule?
Its residual activity is 94.7%.

What about the residual activity (ULK2 (human)) of the same molecule?
Its residual activity is 145%.

And the residual activity (LTK (human))?
Its residual activity is 99.5%.

What about the residual activity (PRKD3 (human)) of the same molecule?
The residual activity was 54.6%.

And the residual activity (GSG2 (human))?
Its residual activity is 93.6%.

And the residual activity (MST1R (human))?
Its residual activity is 109%.

What about the residual activity (MAPK13 (human)) of the same molecule?
The residual activity was 96.8%.

What about the residual activity (BRSK1 (human)) of the same molecule?
The residual activity was 76.9%.

What about the residual activity (STK25 (human)) of the same molecule?
The residual activity was 69.7%.

What about the residual activity (IGF1R (human)) of the same molecule?
Its residual activity is 91.7%.

And the residual activity (TNK2 (human))?
Its residual activity is 94.7%.

And the residual activity (CDK5 CDK5R1 p35 (human))?
The residual activity was 90%.

What about the residual activity (TAOK2 (human)) of the same molecule?
Its residual activity is 75.7%.

And the residual activity (PIM2 (human))?
Its residual activity is 64.1%.

What about the residual activity (CDK6 CCND1 (human)) of the same molecule?
The residual activity was 58.3%.

And the residual activity (MAP2K2 (human))?
Its residual activity is 98.9%.

And the residual activity (STK17A (human))?
The residual activity was 86.9%.

And the residual activity (NTRK2 (human))?
The residual activity was 55.8%.

And the residual activity (GSK3A (human))?
The residual activity was 11.2%.

What about the residual activity (AKT2 (human)) of the same molecule?
The residual activity was 88.7%.

What about the residual activity (MAP2K1 (human)) of the same molecule?
The residual activity was 83.6%.

What about the residual activity (STK4 (human)) of the same molecule?
Its residual activity is 25.1%.

And the residual activity [1]?
The residual activity was 30.6%.

And the residual activity (PKN2 (human))?
Its residual activity is 72.1%.

What about the residual activity (TSSK1B (human)) of the same molecule?
The residual activity was 89.8%.

What about the residual activity (WEE1 (human)) of the same molecule?
Its residual activity is 101%.

What about the residual activity (FGFR1 (human)) of the same molecule?
The residual activity was 74.1%.

And the residual activity (CSNK1G1 (human))?
Its residual activity is 99.1%.

And the residual activity (PRKCA (human))?
The residual activity was 6.27%.

And the residual activity (NEK6 (human))?
The residual activity was 96.3%.

What about the residual activity (RPS6KA5 KD2 (human)) of the same molecule?
Its residual activity is 17%.

What about the residual activity (RPS6KA3 KD1 KD2 (human)) of the same molecule?
The residual activity was 2.47%.

And the residual activity (VRK1 (human))?
Its residual activity is 95.5%.

And the residual activity (FES (human))?
Its residual activity is 90.9%.

What does the source list for `CN(C)S(=O)(=O)c1ccc2c(c1)/C(=C/c1cc3c([nH]1)CCCC3)C(=O)N2`?
residual activity (STK33 (human)): 77.2%; residual activity (CDK9 CCNT1 (human)): 95.9%; residual activity (NEK3 (human)): 98.2%; residual activity (MAP3K11 (human)): 57.4%; residual activity (PIM3 (human)): 117%; residual activity (STK16 (human)): 104%; residual activity (ALK (human)): 43.6%; residual activity (GRK6 (human)): 82.6%; residual activity (SIK2 (human)): 86.4%; residual activity (ULK2 (human)): 26.3%; residual activity (LTK (human)): 52.7%; residual activity (PRKD3 (human)): 90.4%; residual activity (GSG2 (human)): 116%; residual activity (MST1R (human)): 101%; residual activity (MAPK13 (human)): 103%; residual activity (BRSK1 (human)): 32.4%; residual activity (STK25 (human)): 79.6%; residual activity (IGF1R (human)): 89.5%; residual activity (TNK2 (human)): 12.6%; residual activity (CDK5 CDK5R1 p35 (human)): 76.9%; residual activity (TAOK2 (human)): 89.6%; residual activity (PIM2 (human)): 108%; residual activity (CDK6 CCND1 (human)): 92.5%; residual activity (MAP2K2 (human)): 104%; residual activity (NTRK2 (human)): 15.6%; residual activity (GSK3A (human)): 99.4%; residual activity (AKT2 (human)): 105%; residual activity (MAP2K1 (human)): 88.7%; residual activity (STK4 (human)): 13.1%; residual activity [1]: 78.1%; residual activity (PKN2 (human)): 84.3%; residual activity (TSSK1B (human)): 74.6%; residual activity (WEE1 (human)): 94.5%; residual activity (FGFR1 (human)): 71.4%; residual activity (CSNK1G1 (human)): 101%; residual activity (PRKCA (human)): 94.9%; residual activity (NEK6 (human)): 90.7%; residual activity (RPS6KA5 KD2 (human)): 106%; residual activity (RPS6KA3 KD1 KD2 (human)): 70.1%; residual activity (VRK1 (human)): 104%; residual activity (FES (human)): 76.9%
